According to PMC12495412, “Coumarin/nitrogen-bearing heterocyclic hybrid-loaded electrospun PMMA/PVP nanofibrous scaffolds for accelerating topical wound healing rates: synthesis and in vitro bio-evaluation” (RSC Advances, 2025):
Values after ≈ are worked out from the molar mass of the structure shown.

Columns and labels:
Wi-38 cells = test: MTT cytotoxicity assay, normal cells; format: cell-based; conditions: WI-38, normal human lung fibroblast cells, 48 h
Source text: (§1) MTT assay: the normal cell line (Wi-38), colon cancer (Caco-2), lung cancer (A549), and breast cancer (MDA) cell lines were sourced from ATCC, USA. All different cell lines were cultivated and preserved in DMEM medium (SERANA, Germany), accompanied by 10% FBS (Gibco, USA) and 1% Pen/Strep solution (Lonza, USA). The newly prepared derivatives at various doses were considered for their anticancer activity and their safety on normal cells, applying MTT (3-[4, 5-dimethylthiazol]-2, 5-diphenyltetrazolium bromide) methods.[22] At first, all normal and cancer cell lines (1.0 ×10^4) were inoculated in 4 antiseptic 96-well tissue culture microplates and incubated for 24 h in a CO2 incubator. After cell attachments, the prepared derivatives were added to both normal Wi-38 cells at diverse concentrations of (6.25–200 μg mL^−1, 2-fold) and cancer cells at different concentrations of (3.125–100 μg mL^−1, 2-fold) in triplicate and incubated for another 48 h at 37 °C in a CO2 incubator with an adjusted concentration of 5%. After that, the treated cells were cleaned three times with PBS to remove debris and dead cells. Next, 200 μL of 0.5 mg mL^−1 MTT dye solution in PBS was mixed in each well, and the cells were further kept for 3 h at 37 °C in a 5% CO2 incubator. After that, MTT was removed and 200 μL of DMSO was added to each well. The optical density (OD) was recorded at 570 nm via a microplate reader (B.M.G. LabTech, Germany). Basic cells (untreated) were utilized as negative control cells, and 5-fluorouracil (5-FU) was included as a standard chemotherapy drug. The qualified cell viability (%) was evaluated as in equation (eqn (1)):1 Relative cell viability (%) = […] A1 is the OD of the examined derivative, A0 is the OD of the standard, and AU is the OD of the untreated cells.
(§2) Anticancer activity assay: the anticancer effect of each derivative was assessed by evaluating the half-maximal inhibitory concentration (IC50) value via the GraphPad Prism 7.0 software. However, SI (selective index) values of each derivative were estimated by splitting the IC50 value of healthy cells by the IC50 value of malignant cells, as previously reported.[23] The effects of the created derivatives on the morphology of MDA cells were evaluated at IC50 doses and captured by phase-contrast microscopy (Olympus, Germany) in comparison to untreated control cells.

Caco-2 cells = test: MTT anticancer assay; format: cell-based
Source text: as §1, §2

A549 cells = test: MTT anticancer assay; format: cell-based, human; conditions: Homo sapiens, A549, lung carcinoma cells, 48 h
Source text: as §1, §2

MDA cells = test: MTT anticancer assay; format: cell-based, human; conditions: Homo sapiens, Breast carcinoma cell, 48 h
Source text: as §1, §2

S. mutans = test: Agar-well diffusion of synthesized compounds; format: cell-based, Streptococcus mutans ATCC 25175; conditions: Streptococcus mutans, 100 μL of 10 mg mL^−1 per well, 24 h, 37 °C
Source text: (§3) The antimicrobial activity of the prepared compounds was estimated through an agar-well diffusion method as adapted from the modified Kirby–Bauer protocol.[24] In this test, microbial pathogens were applied, including Staphylococcus aureus ATCC 25923 (S. aureus), Streptococcus mutans ATCC 25175 (S. mutans), Bacillus cereus ATCC 19637 (B. cereus), Bacillus aureus ATCC 25923 (B. aureus), Bacillus epidermidis ATCC 14990 (B. epidermidis), and Bacillus subtilis ATCC 11774 (B. subtilis) as Gram-positive bacteria, and Pseudomonas aeruginosa ATCC 27853 (P. aeruginosa), Klebsiella pneumonia ATCC 13883 (K. pneumonia), and Salmonella typhimurium ATCC 14028 (S. typhimurium), Salmonella pneumoniae ATCC 10031(S. pneumoniae), Escherichia coli ATCC 10536 (E. coli), and Salmonella paratyphi ATCC 9150 (S. paratyphi) as Gram-negative bacteria. Additionally, Candida albicans (ATCC 10231), Candida krusei ATCC 6258 (C. krusei), Candida glabrata ATCC 66032 (C. glabrata), andCandida parapsilosis ATCC 22019 (C. parapsilosis) were applied as models of unicellular fungi. The pre-inoculation cultures of the pathogens were prepared on Muller–Hinton broth and cultivated for 24 h at 37 °C. The agar-well test was prepared on Muller–Hinton agar with 100 μL of each pathogen pre-culture (0.5 McFarland conc.) and uniformly distributed on the plate surface. Under aseptic conditions, six wells were created on the agar surface using a sterile corkborer (9 mm). To each well, 100 μL of the prepared compound (10 mg mL^−1) was separately inserted into each plate. All plates were incubated for 24 h at 37 °C; the established inhibition zones (Halo-zones) surrounding the wells indicated positive antimicrobial activity and were stated as the radius of the inhibition zone (mm).

K. pneumonia = test: Agar-well diffusion of synthesized compounds; format: cell-based, Klebsiella pneumonia ATCC 13883; conditions: Klebsiella pneumoniae, 100 μL of 10 mg mL^−1 per well, 24 h, 37 °C
Source text: as §3, with “Under aseptic conditions, six wells were created on the agar surface using a sterile corkborer (9 mm). To each well, 100 μL of the prepared compound (10 mg mL^−1) was separately inserted into each plate. All plates were incubated for 24 h at 37 °C; the established inhibition zones (Halo-zones) surrounding the wells indicated positive antimicrobial activity and were stated as the radius of the inhibition zone (mm).” left out

P. aeruginosa = test: Agar-well diffusion of synthesized compounds; format: cell-based, Pseudomonas aeruginosa ATCC 27853; conditions: Pseudomonas aeruginosa, 100 μL of 10 mg mL^−1 per well, 24 h, 37 °C
Source text: as §3, with “Under aseptic conditions, six wells were created on the agar surface using a sterile corkborer (9 mm). To each well, 100 μL of the prepared compound (10 mg mL^−1) was separately inserted into each plate. All plates were incubated for 24 h at 37 °C; the established inhibition zones (Halo-zones) surrounding the wells indicated positive antimicrobial activity and were stated as the radius of the inhibition zone (mm).” left out

all applied pathogens = test: Agar-well diffusion of synthesized compounds, whole panel; format: cell-based
Source text: as §3

## O=C(Nc1ccc(Nc2ccnc3cc(Cl)ccc23)cc1)c1cc2ccccc2oc1=O [Compound A, N-(4-((7-chloroquinolin-4-yl)amino)phenyl)-2-oxo-2H-chromene-3-carboxamide]
Wi-38 cells
  IC50: 139 ± 12 µg/mL (≈ 314 µM)
Caco-2 cells; Homo sapiens, Caco-2, colon carcinoma cells, MTT, 48 h
  IC50: 9.03 ± 1.53 µg/mL (≈ 20.4 µM)
Caco-2 cells; IC50 Wi-38 / IC50 Caco-2
  SI Caco-2: 15.38 ± 1.33
A549 cells
  IC50: 11.5 ± 1.75 µg/mL (≈ 26 µM)
MDA cells
  IC50: 5.46 ± 0.27 µg/mL (≈ 12.4 µM)
S. mutans
  zone of inhibition at 10 mg/mL: ~14 mm
K. pneumonia
  zone of inhibition at 10 mg/mL: ~14 mm
P. aeruginosa
  zone of inhibition at 10 mg/mL: ~14 mm
All applied pathogens
  Antimicrobial activity: wide-spectrum antibacterial activity
